# Results: ChEMBL document CHEMBL3232788, “1-(2-Hydroxy-2-methyl-3-phenoxypropanoyl)indoline-4-carbonitrile derivatives as potent and tissue selective androgen receptor modulators” (J Med Chem, 2014)
# Active and inactive are the calls of the source. No cut-off for these calls is given here.
# What was measured:
# Androgen receptor [1] = target: T1, Androgen receptor (Homo sapiens, UniProt P10275); test: Agonist activity at human AR expressed in CV1 cells after 17 hrs by luciferase reporter gene assay; assay type: cell-based, CV-1
# T1 sequence (P10275 whole entry): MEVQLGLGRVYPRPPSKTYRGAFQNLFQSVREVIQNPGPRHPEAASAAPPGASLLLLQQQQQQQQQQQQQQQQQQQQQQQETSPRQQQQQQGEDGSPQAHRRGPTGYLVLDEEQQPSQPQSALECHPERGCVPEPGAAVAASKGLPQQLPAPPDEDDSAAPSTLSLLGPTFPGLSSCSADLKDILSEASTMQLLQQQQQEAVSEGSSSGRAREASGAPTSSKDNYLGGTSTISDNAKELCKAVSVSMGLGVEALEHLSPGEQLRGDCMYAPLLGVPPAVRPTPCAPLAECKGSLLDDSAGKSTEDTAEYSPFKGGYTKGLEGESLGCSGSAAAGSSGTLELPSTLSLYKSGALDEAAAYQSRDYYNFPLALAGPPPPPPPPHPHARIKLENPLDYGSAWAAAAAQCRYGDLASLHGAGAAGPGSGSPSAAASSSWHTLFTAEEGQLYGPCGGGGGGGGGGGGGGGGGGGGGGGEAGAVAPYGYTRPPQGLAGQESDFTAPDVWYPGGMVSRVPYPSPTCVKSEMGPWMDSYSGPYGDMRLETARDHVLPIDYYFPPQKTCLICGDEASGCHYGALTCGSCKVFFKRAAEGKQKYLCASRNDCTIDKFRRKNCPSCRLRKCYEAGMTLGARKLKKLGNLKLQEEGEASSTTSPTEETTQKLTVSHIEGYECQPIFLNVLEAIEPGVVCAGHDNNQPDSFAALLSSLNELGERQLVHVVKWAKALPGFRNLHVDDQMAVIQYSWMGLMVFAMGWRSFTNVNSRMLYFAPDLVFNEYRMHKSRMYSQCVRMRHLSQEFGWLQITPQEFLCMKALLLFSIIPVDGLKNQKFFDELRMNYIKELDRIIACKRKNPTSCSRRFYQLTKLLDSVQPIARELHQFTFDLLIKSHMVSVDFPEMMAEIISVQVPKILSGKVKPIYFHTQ
# Androgen receptor [2] = target: T1, Androgen receptor; test: Binding affinity to human AR NTD (1 to 561 aa) expressed in CV1 cells coexpressing human AR-LBD (644-919 aa) assessed as N/C-termini interaction by androgenic assay; assay type: cell-based, CV-1
# Androgen receptor [3] = target: T1, Androgen receptor; test: Displacement of [3H]mibolerone from full length human AR expressed in COS cells after 3.5 hrs by liquid scintillation counting; assay type: cell-based
# Rattus norvegicus [4] = test: Increase in seminal vesicle weight in orchidectomized Sprague-Dawley rat at 1 mg/kg, sc qd for 4 days relative to vehicle-treated control; assay type: ADME, organism-based; design: dose 1 mg/kg, route subcutaneous; conditions: in vivo, 96 h
# Rattus norvegicus [5] = test: Increase in levator ani muscle weight in orchidectomized Sprague-Dawley rat at 1 mg/kg, sc qd for 4 days relative to vehicle-treated control; assay type: functional, organism-based; design: dose 1 mg/kg
# Rattus norvegicus [6] = test: Increase in prostate tissue weight in orchidectomized Sprague-Dawley rat at 1 mg/kg, sc qd for 4 days relative to vehicle-treated control; assay type: ADME, organism-based, Prostate gland; design: dose 1 mg/kg, route subcutaneous; conditions: in vivo, 96 h
Compound,EC50 (Androgen receptor [1]),EC50 (Androgen receptor [2]),IC50 (Androgen receptor [3]),Activity (Rattus norvegicus [4]),Activity (Rattus norvegicus [5]),Activity (Rattus norvegicus [6])
C[C@](O)(COc1ccccc1Cl)C(=O)N1CCc2c(C#N)cccc21,6.1 nM,4820 nM,56.3 nM,–,–,–
COC(=O)c1ccc(OC[C@](C)(O)C(=O)N2CCc3c(C#N)cccc32)cc1,6.8 nM,> 10000 nM,133 nM,–,–,–
C[C@](O)(COc1ccc(F)cc1Br)C(=O)N1CCc2c(C#N)cccc21,0.4 nM,39.5 nM,11.4 nM,–,–,–
COc1ccc(OC[C@](C)(O)C(=O)N2CCc3c(C#N)cccc32)c(F)c1,2.9 nM,> 10000 nM,427 nM,–,–,–
C[C@](O)(COc1ccc(Cl)cc1)C(=O)N1CCc2c(C#N)cccc21,3.4 nM,172 nM,36.5 nM,–,–,–
COc1ccc(OC[C@](C)(O)C(=O)N2CCc3c(C#N)cccc32)cc1,8.6 nM,624 nM,146 nM,–,–,–
CCC(=O)O[C@H]1CC[C@H]2[C@@H]3CCC4=CC(=O)CC[C@]4(C)[C@H]3CC[C@]12C [TESTOSTERONE PROPIONATE],–,–,–,Toxic,Active,Toxic
C[C@](O)(COc1ccccc1C(F)(F)F)C(=O)N1CCc2c(C#N)cccc21,1.7 nM,372 nM,60.9 nM,–,–,–
C[C@](O)(COc1ccc(C#N)cc1F)C(=O)N1CCc2c(C#N)cccc21,0.039 nM,0.14 nM,3.2 nM,–,–,–
C[C@](O)(COc1ccc(C#N)cc1)C(=O)N1CCc2c(C#N)cccc21,1.8 nM,71.8 nM,16.4 nM,–,–,–
C[C@](O)(COc1ccc(Br)cc1)C(=O)N1CCc2c(C#N)cccc21,0.34 nM,7.6 nM,2.4 nM,–,–,–
COc1cc(Cl)ccc1OC[C@](C)(O)C(=O)N1CCc2c(C#N)cccc21,17.1 nM,> 10000 nM,366 nM,–,–,–
C[C@](O)(COc1ccc(C(F)(F)F)cc1)C(=O)N1CCc2c(C#N)cccc21,1.8 nM,> 10000 nM,33.1 nM,–,–,–
C[C@](O)(COc1cccc(Cl)c1)C(=O)N1CCc2c(C#N)cccc21,275 nM,> 10000 nM,107 nM,–,–,–
C[C@](O)(COc1ccc(F)cc1C#N)C(=O)N1CCc2c(C#N)cccc21,0.074 nM,0.74 nM,9.1 nM,–,–,–
C[C@](O)(COc1ccccc1F)C(=O)N1CCc2c(C#N)cccc21,14.8 nM,> 10000 nM,10.1 nM,–,–,–
C[C@](O)(COc1ccc(Cl)cc1F)C(=O)N1CCc2c(C#N)cccc21,0.28 nM,0.85 nM,5 nM,–,–,–
C[C@](O)(COc1ccccc1)C(=O)N1CCc2c(C#N)cccc21,689 nM,> 10000 nM,99.5 nM,–,–,–
COc1ccc(OC[C@](C)(O)C(=O)N2CCc3c(C#N)cccc32)c(Cl)c1,0.61 nM,54.1 nM,3.5 nM,–,–,–
C[C@](O)(COc1ccc(Br)cc1F)C(=O)N1CCc2c(C#N)cccc21,0.11 nM,0.93 nM,36.8 nM,–,–,–
C[C@](O)(COc1ccc(-c2cocn2)cc1)C(=O)N1CCc2c(C#N)cccc21,7.2 nM,> 10000 nM,179 nM,–,–,–
C[C@](O)(COc1ccccc1C#N)C(=O)N1CCc2c(C#N)cccc21,0.15 nM,0.77 nM,14.3 nM,–,–,–
C[C@](O)(COc1cccc(F)c1)C(=O)N1CCc2c(C#N)cccc21,37.4 nM,1530 nM,34.2 nM,–,–,–
COc1cc(C#N)ccc1OC[C@](C)(O)C(=O)N1CCc2c(C#N)cccc21,7.6 nM,2120 nM,16.1 nM,–,–,–
C[C@](O)(COc1ccc(Cl)cc1Cl)C(=O)N1CCc2c(C#N)cccc21,0.25 nM,1.4 nM,9.1 nM,–,–,–
C[C@](O)(COc1ccc(C#N)cc1Br)C(=O)N1CCc2c(C#N)cccc21,0.06 nM,0.41 nM,4.8 nM,–,–,–
Cc1cc(F)ccc1OC[C@](C)(O)C(=O)N1CCc2c(C#N)cccc21,1.1 nM,72.2 nM,10.7 nM,–,–,–
